What was measured:
[1] = Dark et al 1997 Cancer Research 57, 1829-1834; cited from earlier work
[2] = tested on: HUVECs (Human umbilical cord vein endothelial cells); experiment: HUVEC detachment assay; format: cell-based; settings: for activity in the HUVEC cell detachment assay (detachment): dose of compound of 100 μM, 40 minutes, versus undosed control wells
Source text: (ii) HUVEC Detachment Assay
Compounds according to the invention are expected to be able to damage vasculature, such as tumour vasculature, that has been newly formed whilst leaving normal, mature vasculature unaffected. The identification of compounds which can selectively, and preferably potently, damage newly-formed vasculature is desirable and is the subject of the present invention. The ability of the compounds to act in this way may be assessed, for example, using the procedure set out below:
This assay examined the effects of compounds on the adherence of HUVECs (Human umbilical cord vein endothelial cells) to tissue culture plasticware.
HUVECs (supplied by TCS Biologicals Ltd, Buckingham, United Kingdom) were plated in 0.2% gelatin-coated 12 well tissue culture plates at a concentration of 3×10^4 cells per well in 1 ml TCS medium. After 24 hours, when the cells were at ˜30% confluency, they were dosed with a compound under test for 40 minutes at 37° C., 5% CO2. After this incubation the medium containing drug was pipetted off, and the cells were then gently washed in 2 mls of HBSS (Hanks' Balanced Salt Solution purchased from Life Technologies Ltd, Paisley UK; Catalogue # 24020-083) to remove any detached cells. The washing solution was then removed, and the adherent cells remaining were trypsinised using 300 μl of 1×Trypsin-EDTA solution (Life Technologies Ltd, Paisley, UK; Catalogue # 43500-019) at ambient temperature for 2 minutes. The trypsinised cells were then made up to 1 ml with TCS Biologicals medium, then centrifuged at 2000 rpm for 2 minutes. The cell pellet was then resuspended in a volume of 50 μl of TCS Biologicals medium. Total cell counts were obtained by counting the cells on a haemocytometer. The amount of cell detachment was calculated by comparing the number of cells remaining attached following treatment with the number in undosed control wells.

[3] = tested on: colchicine binding site on tubulin (purified tubulin protein from bovine brain); experiment: Colchicine binding site competitive assay; settings: dose of compound of 10 μM; relative to DMSO negative control
Method: (i) Colchicine Binding Site Competitive Assay Kit.
The ability of a ligand to bind specifically to the coichicine binding site on tubulin, an indicator of the vascular damaging activity, was assessed using a size exclusion chromatography assay kit from “Cytoskeleton” (1650 Fillmore St. #240, Denver, Colo. 80206, U.S.A.) Catalogue number of kit: BK023.
The following reagents were used: • tubulin buffer, to give 0.1 mM GTP, 0.5 mM MgCl2, 0.5 mM EGTA, 40 mM PIPES buffer at pH6.9 in the final reaction mix; • purified tubulin protein from bovine brain at 1 mg/ml in tubulin buffer; • 0.02 mM fluorescent coichicine in tubulin buffer [FITC (fluorescein isothiocyanate)-labelled]; • 2 mM colchicine in tubulin buffer; • 0.2 mM vinblastine in tubulin buffer; and • G-25 Sephadex™ Fine-particle size 34-138 μm.
The reaction was performed as follows: • 8 μl of test compound (dissolved in DMSO) was gently mixed with 150 μl of tubulin. This was then incubated at 37° C. for 30 minutes. […]
Chromatography was performed as follows, using chromatography columns filled with 3 mls of G-25 Sephadex™ Fine slurry. […] The fluorescence of the tubulin-containing fractions was detected on a spectrophotometer which excites at 485 nm and emits at 535 nm. […]
The degree of competition of colchicine binding by either unlabelled colchicine or test compound was calculated relative to the DMSO negative control.

## COc1ccc(/C=C\c2cc(OC)c(OC)c(OC)c2)cc1O [Combretastatin A4]
[1]
  anti-vascular effects at doses below the MTD: greater than 10 times less than the MTD

## N#Cc1c(N)[nH]c2ccc(Sc3ccc(O)cc3)cc12 [Example 2, 5-(4-Hydroxyphenylsulphanyl)-2-amino-1H-indole-3-carbonitrile]
[2]
  activity in the HUVEC cell detachment assay (detachment): 55%
[3]
  activity in the colchicine binding site competitive assay (competition): 36%
other
  melting point: 241 to 242 °C

## COc1ccc(Sc2ccc3[nH]c(N)c(C#N)c3c2)cc1OC [Example 3, 5-(3,4-Dimethoxyphenylsulphanyl)-2-amino-1H-indole-3-carbonitrile]
other
  melting point: 169 to 173 °C

## Cc1cc2[nH]c(N)c(C#N)c2cc1F [Example 8, 6-methyl-5-fluoro-2-amino-1H-indole-3-carbonitrile]
[2]
  activity in the HUVEC cell detachment assay (detachment): 34%
[3]
  activity in the colchicine binding site competitive assay (competition): 31%

## COc1ccc(Oc2ccc3[nH]c(N)c(C#N)c3c2)cc1 [Example 9, 5-(4-Methoxyphenoxy)-2-amino-1H-indole-3-carbonitrile]
other
  melting point: 216 to 217 °C

## COc1cc(Oc2ccc3[nH]c(N)c(C#N)c3c2)cc(OC)c1OC [Example 11, 5-(3,4,5-Trimethoxyphenoxy)-2-amino-1H-indole-3-carbonitrile]
other
  melting point: 208 to 209 °C

## CC(=O)O[C@H]1C(=O)[C@@]2(C)[C@H]([C@H](OC(=O)c3ccccc3)[C@]3(O)C[C@H](OC(=O)[C@H](O)[C@@H](NC(=O)c4ccccc4)c4ccccc4)C(C)=C1C3(C)C)[C@]1(OC(C)=O)CO[C@@H]1C[C@@H]2O [Taxol, reference compound]
[2]
  cell detachment in the HUVEC detachment assay: does not cause cell detachment

## COc1cc2c(c(OC)c1OC)-c1ccc(OC)c(=O)cc1[C@@H](NC(C)=O)CC2 [colchicine]
[1]
  doses at which vascular damaging activity is elicited, relative to the maximum tolerated dose (MTD): only elicit vascular damaging activity at doses approaching the maximum tolerated dose

## CC[C@]1(O)C[C@H]2CN(CCc3c([nH]c4ccccc34)[C@@](C(=O)OC)(c3cc4c(cc3OC)N(C=O)[C@H]3[C@@](O)(C(=O)OC)[C@H](OC(C)=O)[C@]5(CC)C=CCN6CC[C@]43[C@@H]65)C2)C1 [vincristine]
[1]
  doses at which vascular damaging activity is elicited, relative to the maximum tolerated dose (MTD): only elicit vascular damaging activity at doses approaching the maximum tolerated dose

From patent US7030123B2, “Indole derivatives with vascular damaging activity” (AstraZeneca AB, priority 2000, dated 2006)
